Assay results published in ChEMBL document CHEMBL6087429, “Synthesis of drimanyl indole fragments of drimentine alkaloids and their antibacterial activities” (2025).
In brackets after ≈: the same amount, converted by molar mass.

Experiments:
Format in all cases: functional
Ralstonia solanacearum [1] = test: Antibacterial activity against Ralstonia solanacearum Px1 assessed as inhibition of bacterial growth at 16 ug/ml
Staphylococcus aureus [2] = test: Antibacterial activity against Staphylococcus aureus ATCC 29213 assessed as inhibition of bacterial growth
Staphylococcus aureus [3] = test: Antibacterial activity against Staphylococcus aureus ATCC 29213 assessed as inhibition of bacterial growth at 16 ug/ml
Ralstonia solanacearum [4] = test: Antibacterial activity against Ralstonia solanacearum Px1 assessed as inhibition of bacterial growth
Pseudomonas aeruginosa = test: Antibacterial activity against Pseudomonas aeruginosa PA14 assessed as inhibition of bacterial growth
Escherichia coli = test: Antibacterial activity against Escherichia coli ATCC 25922 assessed as inhibition of bacterial growth

Row | Structure (SMILES) | inhibition at 16 µg/mL (Ralstonia solanacearum [1]) | MIC (Staphylococcus aureus [2]) | inhibition at 16 µg/mL (Staphylococcus aureus [3]) | MIC (Ralstonia solanacearum [4]) | inhibition (INH) (Pseudomonas aeruginosa) | inhibition (INH) (Escherichia coli)
1 | S=c1[nH]nc(NCNc2n[nH]c(=S)s2)s1 | 0% | 256 µg/mL (≈ 919 µM) | 0% | 128 µg/mL (≈ 460 µM) |  | 
2 | Cc1c(C[C@@H]2[C@@]3(C)CCCC(C)(C)[C@@H]3CC[C@@]2(C)O)c2ccccc2n1Cc1ccc(F)cc1 | 0% |  | 0% |  | 0% | 0%
3 | Cc1c(C[C@@H]2[C@@]3(C)CCCC(C)(C)[C@@H]3CC[C@@]2(C)O)c2ccccc2n1-c1ccc(F)cc1 | 0% |  | 0% |  | 0% | 0%
4 | C=CCn1c(C)c(C[C@@H]2[C@@]3(C)CCCC(C)(C)[C@@H]3CC[C@@]2(C)O)c2ccccc21 | 0% |  | 0% |  | 0% | 0%
5 | Cc1ccc(-n2c(C)c(C[C@@H]3[C@@]4(C)CCCC(C)(C)[C@@H]4CC[C@@]3(C)O)c3ccccc32)cc1 | 0% |  | 0% |  | 0% | 0%
6 | Cc1c2c3ccccc3n1[C@]1(C)CC[C@H]3C(C)(C)CCC[C@]3(C)[C@H]1C2 | 0% |  | 0% |  | 0% | 0%
7 | Cc1c(C[C@@H]2[C@@]3(C)CCCC(C)(C)[C@@H]3CC[C@@]2(C)O)c2ccccc2n1-c1ccc(C(F)(F)F)cc1 | 0% |  | 0% |  | 0% | 0%
8 | Cc1c(C[C@@H]2[C@@]3(C)CCCC(C)(C)[C@@H]3CC[C@@]2(C)O)c2ccccc2n1Cc1ccc(C(F)(F)F)cc1 | 0% |  | 0% |  | 0% | 0%
9 | Cc1ccc(Cn2c(C)c(C[C@@H]3[C@@]4(C)CCCC(C)(C)[C@@H]4CC[C@@]3(C)O)c3ccccc32)cc1 | 0% |  | 0% |  | 0% | 0%
10 | Cc1c(C[C@@H]2[C@@]3(C)CCCC(C)(C)[C@@H]3CC[C@@]2(C)O)c2ccccc2n1-c1ccccc1 | 0% |  | 0% |  | 0% | 0%
11 | CCn1c(C)c(C[C@@H]2[C@@]3(C)CCCC(C)(C)[C@@H]3CC[C@@]2(C)O)c2ccccc21 | 0% |  | 0% |  | 0% | 0%
12 | CC1=C(Cc2c(C)[nH]c3ccccc23)[C@@]2(C)CCCC(C)(C)[C@@H]2CC1 | 92% |  | 0% |  | 0% | 0%
13 | Cc1c(C[C@@H]2[C@@]3(C)CCCC(C)(C)[C@@H]3CC[C@@]2(C)O)c2ccccc2n1Cc1ccccc1 | 0% |  | 0% |  | 0% | 0%
14 | Cc1[nH]c2ccccc2c1C[C@@H]1[C@@]2(C)CCCC(C)(C)[C@@H]2CC[C@@]1(C)O | > 99% |  | 93% | 8 µg/mL (≈ 22.6 µM) | 0% | 0%
15 | Cc1c(C[C@@H]2[C@@]3(C)CCCC(C)(C)[C@@H]3CC[C@@]2(C)O)c2ccccc2n1C(=O)c1ccccc1 | 0% |  | 0% |  | 0% | 0%
16 | CC1=CC[C@H]2C(C)(C)CCC[C@]2(C)[C@H]1Cc1c(C)[nH]c2ccccc12 | 95% |  | 0% |  | 0% | 0%
17 | Cc1c(C[C@@H]2[C@@]3(C)CCCC(C)(C)[C@@H]3CC[C@@]2(C)O)c2ccccc2n1C | 0% |  | 0% |  | 0% | 0%
18 | C=CCCn1c(C)c(C[C@@H]2[C@@]3(C)CCCC(C)(C)[C@@H]3CC[C@@]2(C)O)c2ccccc21 | 0% |  | 0% |  | 0% | 0%
19 | C=C1CC[C@H]2C(C)(C)CCC[C@]2(C)[C@H]1Cc1c(C)[nH]c2ccccc12 | > 99% |  | 0% | 16 µg/mL (≈ 47.7 µM) | 0% | 0%
20 | C=C[C@](C)(O)CC[C@@H]1[C@@]2(C)CCCC(C)(C)[C@@H]2CC[C@@]1(C)O [SCLAREOL] | 65% | 16 µg/mL (≈ 51.9 µM) | > 99% | 32 µg/mL (≈ 104 µM) | 0% | 0%
21 | CN[C@H](CC(C)C)C(=O)N[C@H]1C(=O)N[C@@H](CC(N)=O)C(=O)N[C@H]2C(=O)N[C@H]3C(=O)N[C@H](C(=O)N[C@H](C(=O)O)c4cc(O)cc(O)c4-c4cc3ccc4O)[C@H](O)c3ccc(c(Cl)c3)Oc3cc2cc(c3O[C@@H]2O[C@H](CO)[C@@H](O)[C@H](O)[C@H]2O[C@H]2C[C@](C)(N)[C@H](O)[C@H](C)O2)Oc2ccc(cc2Cl)[C@H]1O [VANCOMYCIN] | > 99% |  | > 99% | < 0.5 µg/mL |  | 
